Test results reported in patent US11072581B2, “N-acyl-arylsulfonamide derivatives as aminoacyl-tRNA synthetase inhibitors” (Oxford Drug Design Limited, priority 2015, dated 2021).
Counter-ions that a name gives are not always drawn.

Key:
Format in all cases: biochemical
Conditions in all cases: i.a. = inactive at a concentration below 50 uM
[1] = biological target: T1, SauVRS (valyl-tRNA synthetase from Staphylococcus aureus) (Staphylococcus aureus, UniProt Q2FXR8); experiment: aaRS aminoacylation assay (ATP consumption), SauVRS
T1 construct: made in house; host or cells: Escherichia coli M15
T1 sequence (Q2FXR8 1-876): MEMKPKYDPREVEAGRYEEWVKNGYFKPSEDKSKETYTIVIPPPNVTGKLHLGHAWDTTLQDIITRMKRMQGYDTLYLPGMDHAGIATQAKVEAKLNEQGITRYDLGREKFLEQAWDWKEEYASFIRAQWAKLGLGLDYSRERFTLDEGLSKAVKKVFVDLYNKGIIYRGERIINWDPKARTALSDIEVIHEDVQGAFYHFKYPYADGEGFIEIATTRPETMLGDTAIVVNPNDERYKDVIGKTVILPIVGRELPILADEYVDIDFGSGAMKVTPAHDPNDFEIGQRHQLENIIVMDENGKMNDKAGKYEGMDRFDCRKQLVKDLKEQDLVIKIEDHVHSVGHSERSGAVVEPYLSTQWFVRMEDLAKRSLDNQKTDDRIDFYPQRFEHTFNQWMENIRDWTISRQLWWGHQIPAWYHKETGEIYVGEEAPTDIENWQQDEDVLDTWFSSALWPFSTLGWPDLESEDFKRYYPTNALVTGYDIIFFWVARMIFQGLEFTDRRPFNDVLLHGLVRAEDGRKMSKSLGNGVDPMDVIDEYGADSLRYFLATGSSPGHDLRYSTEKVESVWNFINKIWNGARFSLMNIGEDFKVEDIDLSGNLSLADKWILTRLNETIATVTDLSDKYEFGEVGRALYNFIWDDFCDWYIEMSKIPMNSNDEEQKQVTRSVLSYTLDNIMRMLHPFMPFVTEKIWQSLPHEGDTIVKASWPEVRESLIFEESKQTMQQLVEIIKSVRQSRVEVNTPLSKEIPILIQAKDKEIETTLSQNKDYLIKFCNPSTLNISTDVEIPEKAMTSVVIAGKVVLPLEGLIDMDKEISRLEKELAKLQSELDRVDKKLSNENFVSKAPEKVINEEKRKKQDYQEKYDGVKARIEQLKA
Experimental: (§1) The compounds have been tested for antibacterial activity in vitro as aminoacyl-tRNA synthetases (aaRS) inhibitors following the following process.
(§2) Leucyl-, valyl- and isoleucyl-tRNA synthetases (LRS, VRS and IRS, respectively) from Escherichia coli (Eco) and Staphylococcus aureus (Sau).
(§3) Escherichia coli M15 cells transformed with plasmid pQE-60, or pQE-70, containing the open-reading frame sequence of one targeted aaRS were induced with 1 mM IPTG (Isopropyl β-D-1-thiogalactopyranoside) for 3 h at 37° C. Bacterial cells were harvested and lysed with 20 mM NaH2PO4 (pH 8.0), 200 mM NaCl, 10 mM imidazole and protease inhibitor cocktail (Roche). Pathogenic aaRS was purified by nickel affinity standard chromatography. Protein concentration was determined by spectrophotometry.
(§4) tRNA^Leu, tRNA^Val and tRNA^Ile from E. coli and S. aureus were transcribed in vitro for 4 h at 37° C. using T7 RNA polymerase. Transcription reaction contained 40 mM Tris-HCl (pH 8.0), 22 mM MgCl2, 1 mM spermidine, 5 mM DTT, 0.01% Triton X-100, 4 mM GTP, 4 mM ATP, 4 mM UTP, 4 mM CTP, 16 mM GMP, […] T7 RNA polymerase and 150 μg BstNI digested plasmid. Once finished, the reaction was applied on a 6% polyacrylamide-8 M urea denaturing gel to purify the transcribed tRNA and discard any impurities. Purified tRNA was quantified with Nanodrop 2000 (Thermo Scientific).
(§5) The aminoacylation reaction catalyzed by aminoacyl-tRNA synthetases (aaRS) takes place in two steps. In the first step, aaRS activates its cognate amino acid with ATP; and in the second step the activated amino acid is loaded to its corresponding tRNA. This reaction can be summarized as follows: ARS+aa+ATP=ARS-aa-AMP+PPi ARS-aa-AMP+tRNA=aa-tRNA+AMP+ARS [2] (ARS, Aminoacyl-tRNA synthetase; aa, amino acid; ARS-aa-AMP, enzyme-bound to aminoacyl-adenylate; aa-tRNA, aminoacyl-tRNA).
(§6) The activity of the pathogenic aaRSs was monitored by measuring the ATP consumption rate, since this consumption is directly proportional to the activity of the aaRS. If the tested compound, at a single point concentration of 50 μM, is inhibiting the aminoacylation reaction, there is a decrease in the ATP consumption, compared to the control reaction without compound, allowing the calculation of an inhibition ratio.
(§7) When the inhibition ratio for a given compound was above 80%, IC50 determination was performed with the same enzymatic assay (using the commercial kit Kinase RR from BioThema AB, Sweden) in the presence of serial dilutions of inhibitor. Known inhibitors of LRS, VRS or IRS were used as a positive control of the assay. The IC50 was calculated based on nonlinear regression analysis.

[2] = biological target: T2, SauIRS (isoleucyl-tRNA synthetase from Staphylococcus aureus) (Staphylococcus aureus, UniProt P41972); experiment: aaRS aminoacylation assay (ATP consumption), SauIRS
T2 construct: made in house; host or cells: Escherichia coli M15
T2 sequence (P41972 1-917): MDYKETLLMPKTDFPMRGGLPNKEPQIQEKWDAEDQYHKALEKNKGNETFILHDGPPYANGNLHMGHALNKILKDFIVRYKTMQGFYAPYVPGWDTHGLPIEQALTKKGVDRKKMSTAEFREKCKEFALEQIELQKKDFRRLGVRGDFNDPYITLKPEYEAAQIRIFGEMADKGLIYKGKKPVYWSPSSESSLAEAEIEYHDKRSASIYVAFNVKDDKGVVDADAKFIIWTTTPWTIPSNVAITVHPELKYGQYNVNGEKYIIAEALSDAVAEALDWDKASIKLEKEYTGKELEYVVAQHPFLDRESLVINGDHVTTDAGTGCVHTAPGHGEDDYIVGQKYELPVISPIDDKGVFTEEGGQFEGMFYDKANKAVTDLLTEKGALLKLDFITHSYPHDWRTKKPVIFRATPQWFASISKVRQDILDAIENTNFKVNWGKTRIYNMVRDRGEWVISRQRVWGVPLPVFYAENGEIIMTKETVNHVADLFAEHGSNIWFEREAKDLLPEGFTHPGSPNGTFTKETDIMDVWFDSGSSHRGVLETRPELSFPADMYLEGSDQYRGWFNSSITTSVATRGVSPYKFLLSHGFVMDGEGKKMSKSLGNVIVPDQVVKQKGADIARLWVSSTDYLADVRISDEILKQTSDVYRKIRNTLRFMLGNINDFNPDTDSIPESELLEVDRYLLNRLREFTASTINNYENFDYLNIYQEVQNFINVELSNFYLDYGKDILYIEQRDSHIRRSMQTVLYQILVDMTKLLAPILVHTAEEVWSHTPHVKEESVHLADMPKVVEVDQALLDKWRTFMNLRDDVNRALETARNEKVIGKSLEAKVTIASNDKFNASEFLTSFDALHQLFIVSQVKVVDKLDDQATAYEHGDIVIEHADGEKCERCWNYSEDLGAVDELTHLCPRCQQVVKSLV
Experimental: as §1, §2, §3, §4, §5, §6, §7

[3] = biological target: T3, EcoVRS (valyl-tRNA synthetase from Escherichia coli) (Escherichia coli, UniProt P07118); experiment: aaRS aminoacylation assay (ATP consumption), EcoVRS
T3 construct: made in house; host or cells: Escherichia coli M15
T3 sequence (P07118 whole entry): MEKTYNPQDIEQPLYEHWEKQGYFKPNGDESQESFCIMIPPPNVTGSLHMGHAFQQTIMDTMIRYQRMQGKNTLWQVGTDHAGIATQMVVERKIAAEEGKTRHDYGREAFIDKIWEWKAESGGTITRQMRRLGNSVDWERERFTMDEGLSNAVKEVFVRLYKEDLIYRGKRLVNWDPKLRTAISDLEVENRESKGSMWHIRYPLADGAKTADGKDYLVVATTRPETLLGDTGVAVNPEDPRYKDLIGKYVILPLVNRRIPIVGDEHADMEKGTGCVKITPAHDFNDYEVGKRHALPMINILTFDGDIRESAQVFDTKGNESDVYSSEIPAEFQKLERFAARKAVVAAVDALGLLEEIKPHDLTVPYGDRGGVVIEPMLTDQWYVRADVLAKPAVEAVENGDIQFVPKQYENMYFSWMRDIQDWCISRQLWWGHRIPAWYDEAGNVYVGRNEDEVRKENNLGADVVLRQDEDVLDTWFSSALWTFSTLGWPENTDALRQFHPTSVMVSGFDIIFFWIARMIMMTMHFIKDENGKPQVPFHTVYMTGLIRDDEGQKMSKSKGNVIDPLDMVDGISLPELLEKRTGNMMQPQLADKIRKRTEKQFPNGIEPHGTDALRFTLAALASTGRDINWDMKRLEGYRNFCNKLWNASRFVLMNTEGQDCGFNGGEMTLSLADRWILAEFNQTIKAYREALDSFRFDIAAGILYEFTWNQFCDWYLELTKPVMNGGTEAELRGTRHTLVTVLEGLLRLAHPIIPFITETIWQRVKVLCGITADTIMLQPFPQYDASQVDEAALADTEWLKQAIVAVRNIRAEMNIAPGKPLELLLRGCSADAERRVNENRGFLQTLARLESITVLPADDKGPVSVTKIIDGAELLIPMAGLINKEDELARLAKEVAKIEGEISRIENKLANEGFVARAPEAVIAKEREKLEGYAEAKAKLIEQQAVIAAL
Experimental: as §1, §2, §3, §4, §5, §6, §7

| Structure (SMILES) | IC50 SauVRS [1] | IC50 SauIRS [2] | IC50 EcoVRS [3] |
| --- | --- | --- | --- |
| N[C@@H](CC1CC1)C(=O)NS(=O)(=O)c1cccc(-c2ccccc2)c1 (racemic) [Compound 5.10] | i.a | i.a | i.a |
| CC(C)C[C@H](N)C(=O)NS(=O)(=O)c1ccccc1 [Compound 5.1, (S)-2-amino-4-methyl-N-(phenylsulfonyl)pentanamide hydrochloride] | i.a. | i.a. | i.a. |
| CC(C)C[C@H](N)C(=O)NS(=O)(=O)c1ccc(Oc2ccccc2)cc1 [Compound 5.2] | i.a | i.a | i.a |
| CC(C)C[C@H](N)C(=O)NS(=O)(=O)c1ccccc1-c1ccccc1 [Compound 5.3] | i.a | i.a | i.a |
| CC(C)C[C@H](N)C(=O)NS(=O)(=O)c1cccc(Cl)c1 [Compound 5.4] | i.a | i.a | i.a |
| CC(C)C[C@H](N)C(=O)NS(=O)(=O)c1ccccc1Cl [Compound 5.5] | i.a | i.a | i.a |
| CC(C)C[C@H](N)C(=O)NS(=O)(=O)c1ccccc1F [Compound 5.6] | i.a | i.a | i.a |
| CCCCc1ccc(S(=O)(=O)NC(=O)[C@@H](N)CC(C)C)cc1 [Compound 5.7] | i.a | i.a | i.a |
| CC(C)C[C@H](N)C(=O)NS(=O)(=O)c1cccc(-c2ccccc2)c1 [Compound 5.9] | i.a | i.a | i.a |
| CC(C)C[C@H](N)C(=O)NS(=O)(=O)c1ccc(-c2ccccc2)cc1 [Compound 5.11] | i.a | i.a | i.a |
| CC(C)C[C@H](N)C(=O)NS(=O)(=O)c1c(C(C)C)cc(C(C)C)cc1C(C)C [Compound 5.12] | i.a | i.a | i.a |
| CC(C)C[C@H](N)C(=O)NS(=O)(=O)c1cccc2ccccc12 [Compound 5.13] | i.a | i.a | i.a |
| CC(C)C[C@H](N)C(=O)NS(=O)(=O)c1ccc2ccccc2c1 [Compound 5.14] | i.a | i.a | i.a |
| CC[C@H](C)[C@H](N)C(=O)NS(=O)(=O)c1ccc2ccccc2c1 [Compound 5.15] | i.a | i.a | i.a |
| CC(C)C[C@H](N)C(=O)NS(=O)(=O)c1cccc2c(N(C)C)cccc12 [Compound 5.16, (S)-2-amino-N-((5-(dimethylamino)naphthalen-1-yl)sulfonyl)-4-methylpentanamide hydrochloride] | i.a | i.a | i.a |
| COc1ccc2cc(S(=O)(=O)NC(=O)[C@@H](N)CC(C)C)ccc2c1 [Compound 5.17] | i.a | i.a | i.a |
| CC(C)C[C@H](N)C(=O)NS(=O)(=O)c1cccc2cccnc12 [Compound 5.19] | i.a | i.a | i.a |
| CC(C)C[C@H](N)C(=O)NS(=O)(=O)c1cccc2ccncc12 [Compound 5.21] | i.a | i.a | i.a |
| CC(C)C[C@H](N)C(=O)NS(=O)(=O)c1ccc(Br)c2ccncc12 [Compound 5.22, trifluoroacetate] | i.a | i.a | i.a |
| CC(C)C[C@H](N)C(=O)NS(=O)(=O)c1cccc2cc(C(N)=O)ncc12 [Compound 5.24, 8-(N-(L-Leucyl)sulfamoyl)isoquinoline-3-carboxamide] | i.a | i.a | i.a |
| CC(C)C[C@H](N)C(=O)NS(=O)(=O)c1cccc2c1OCCC2 [Compound 5.25] | i.a | i.a | i.a |
| CC(C)C[C@H](N)C(=O)NS(=O)(=O)c1cccc2c1CNCC2 [Compound 5.26, (S)-2-amino-4-methyl-N-((1,2,3,4-tetrahydroisoquinolin-8-yl)sulfonyl) pentanamide trifluoroacetate] | i.a | i.a | i.a |
| CNc1cc(-c2cccc(S(=O)(=O)NC(=O)[C@@H](N)CC(C)C)c2)nc(N)n1 [Compound 5.27] | i.a | i.a | i.a |
| CC(C)C[C@H](N)C(=O)NS(=O)(=O)c1cccc(-c2cc(N(C)C)nc(N)n2)c1 [Compound 5.28] | i.a | i.a | i.a |
| CSc1cc(-c2cccc(S(=O)(=O)NC(=O)[C@@H](N)CC(C)C)c2)nc(N)n1 [Compound 5.29] | i.a | i.a | i.a |
| Cc1cc(-c2cccc(S(=O)(=O)NC(=O)[C@@H](N)CC3CC3)c2)nc(N)n1 [Compound 5.30] | i.a | i.a | i.a |
